Our source for the cytotoxicity values is ChEMBL document CHEMBL3507680, “University of Dundee, Gates Library screen for HepG2 cell viability”.

SMILES strings stand for the structures.

This data set is described as follows: Human HepG2 cell viability assay in 384 well format. It is filed as toxicity, cell-based. The arrangement: dose 125 nL, time 70.5 hour; concentration not given beside the values. The note with it: HepG2 cells, read-out: Inhibition.

Consider `CCN(Cc1ccncc1)C(=O)CCn1c(C)cc2ccccc21`, for which the cytotoxicity at 70.5 h is -3.9%. `CN(CCc1ccccn1)c1cc(N2CCCCC2)ncn1`: the cytotoxicity at 70.5 h is -6.31%.

For `COc1ccc(Oc2cccc(C#N)n2)cc1CN1CCCC1`, the cytotoxicity at 70.5 h is -1.4%. Then `OC1(CNCc2csc(-c3ncccn3)n2)CCCNC1` (stereo not given), with -5.29%. Then `Cc1ccccc1OCC1CCCN(C(=O)CN(C)C2CCNCC2)C1` (stereo not given), with -4.15%; and `Cc1cc(NC(=O)CNCc2csc(-c3ncccn3)n2)ccc1Cl`, with -14.6%. For `COc1ccccc1OCc1cc(C(=O)N2CCN(C(C)=O)CC2)n[nH]1` the value was -5.97%; for `O=C1CC(NCc2ccccn2)CN1CCc1ccc(F)cc1` (stereo not given), 20.5%. For the compound `COCc1nc(CNC2CCC3(CCNCC3)CC2)no1`, the cytotoxicity at 70.5 h is -8.94%.

Regarding `Cc1ncc(CN2CCCC2c2ccc(C(=O)NCc3ccoc3)s2)s1` (stereo not given), the cytotoxicity at 70.5 h was -0.861%. For `Cc1ccc2[nH]nc(C(=O)NCC3CCN(Cc4c[nH]cn4)C3)c2c1` (stereo not given) the value was -5.7%; for `O=C(CC1CNCCO1)N1CCC(c2cc(N3CCCC3)ncn2)CC1` (stereo not given), 12.3%; for `CCCOC1CCCN(C(=O)c2ccc(S(N)(=O)=O)cc2)C1` (stereo not given), -3.49%. For `O=C(NCc1cc(N2CCOCC2)ncn1)c1cccc(CO)n1` the value was 5.15%; for `COc1ccc(CC2(C(=O)O)CCN(c3nc(C)ncc3C)CC2)cc1`, -10.8%. Then `Cc1nc2c(NCC(C)N(C)c3ccccc3)ncnc2o1` (stereo not given), with -5.13%; and `O=C1N(Cc2ccc(F)c(F)c2)CCCC1(O)CNCc1ncc[nH]1` (stereo not given), with -1.39%; and `COCCc1noc(CNC2CCCC(C)(C)C2)n1` (stereo not given), with -4.63%. With `Cc1c(Cn2ccnc2-c2cc(CN(C)C)cs2)cnn1C`, the cytotoxicity at 70.5 h is 3.72%.

As to `Cc1csc2ncnc(N3CCC(Cn4cc(C(C)(C)N)nn4)CC3)c12`, the cytotoxicity at 70.5 h turned out to be 2.54%.

Turning to `CN1CC2(CCCN(c3nc(N)nc4c3CCCC4)C2)OC1=O` (stereo not given), the cytotoxicity at 70.5 h is -10.1%.

As to `CCCn1ncc(C(=O)N(C)Cc2cc(C3CC3)[nH]n2)c1C`, the cytotoxicity at 70.5 h came out at 0.995%. `Cc1nc(N[C@H]2COC[C@@H]2N2CCCC2)c2cnn(C)c2n1`: the cytotoxicity at 70.5 h was -8.31%. `Cc1nc(N)sc1C(=O)N1CCC(C(O)Cc2ccccc2)CC1` (stereo not given): the cytotoxicity at 70.5 h is -7.21%. As to `CC(C)n1cnnc1CN(C)C(=O)C1CCCN(CC(N)=O)C1` (stereo not given), the cytotoxicity at 70.5 h was -10.5%. For `CCC(C)N(Cc1sccc1C)C(=O)c1cc(N)ccn1` (stereo not given) the value was -11.9%; for `CC(C)c1nc(CN(C)Cc2cnc(N3CCOCC3)nc2)no1`, -6.44%. Take `CN(Cc1ccccc1)CC(O)Cn1cnc2sccc2c1=O` (stereo not given): the cytotoxicity at 70.5 h is -8.79%.

In the case of `CCS(=O)(=O)N1CCC(NC(=O)c2ccccc2O)CC1`, the cytotoxicity at 70.5 h is -6.17%. Then `Cc1cc(C(=O)O)cc(S(=O)(=O)Nc2ccc3c(c2)OCCO3)c1C`, with -3.8%; and `CCS(=O)(=O)N1CCC(NC(=O)c2cc3ccccc3cc2O)CC1`, with 12.9%.

For `CN(Cc1ccccc1)CC(O)Cn1cnc2ccc(Br)cc2c1=O` (stereo not given), the cytotoxicity at 70.5 h was -5.18%. Consider `CCS(=O)(=O)N1CCC(NC(=O)c2cc(C)ccc2O)CC1`, for which the cytotoxicity at 70.5 h was -5.66%. Turning to `CC(C#N)CN(C)Cc1nc2c(cnn2C)c(=O)[nH]1` (stereo not given), the cytotoxicity at 70.5 h is -7.12%. As for `CC(C)CCN(CCC(C)C)Cc1nc2c(cnn2C)c(=O)[nH]1`, the cytotoxicity at 70.5 h amounted to 2.1%. For `CN(Cc1ccccc1)CC(O)Cn1cnc2cc(F)ccc2c1=O` (stereo not given) the value was -7.28%; for `Cc1ccccc1OCCCC(=O)NCC1CN(C)CCO1` (stereo not given), -1.6%. For `N#Cc1ccc(S(=O)(=O)NC(=O)COc2ccc3c(c2)CCC3)cc1` the value was -1.54%; for `CC(C)CCN(C(=O)c1nc(S(C)(=O)=O)n2ccccc12)C1CC1`, -1.14%.

With `COc1ccc(CNCc2ccnc(N3CCCC3)c2)c(OC)c1`, the cytotoxicity at 70.5 h is -1.69%.
